According to patent publication US20250197382A1, “KIF18A INHIBITOR” (WIGEN BIOMEDICINE TECHNOLOGY (SHANGHAI) CO., LTD., priority 2022, published 2025):

Target: Recombinant human KIF18A (1-467His-tagged) protein (Homo sapiens (Human), UniProt Q8NI77)
Experiment: KIF18A enzyme assay (microtubule-stimulated ATPase activity, ADP-Glo)
Assay type: biochemical
Conditions: 30 nM KIF18A, ATP 75 μM, read-out: inhibitory activity against KIF18A IC50
Experimental: Biological Example 1. Assay for In Vitro Inhibition of Enzymatic Activity of KIF18A by Compounds of the Present Invention
KIF18A enzyme assay: The enzymatic activity of KIF18A after treatment with the compounds was measured by an assay of microtubule-stimulated ATPase activity. ADP generated from the ATPase reaction was measured in this assay. The compounds were serially diluted 2-fold in DMSO over a range of 22 concentration points. Recombinant human KIF18A (1-467His-tagged) protein was expressed using a baculovirus system. Concentrations of KIF18A protein, microtubules, and ATP in the reaction were optimized for a standardized homogenous enzyme assay using an ADP-Glo kinase/ATPase assay kit. A reaction buffer [(15 mM Tris, pH 7.5), 10 mM MgCl2, 0.01% PluronicF-68, 1 μM paclitaxel, and 30 μg/mL pig microtubules] was prepared. The compounds and KIF18A protein (30 nM) were added to the prepared reaction buffer, and the reaction mixture was incubated at room temperature for 15 min, followed by addition of ATP (Km, 75 μM). The resulting reaction mixture was incubated at room temperature for another 15 min. 5 μL of ADP-Glo reagent and 2.5 μL of the reaction mixture were mixed and the resulting mixture was incubated at room temperature for 40 min. 10 μL of ADP-Glo detection reagent was added and the mixture was incubated at room temperature for 40 min. Luminescence was measured using a microplate reader and compared with that of the DMSO group, and then the inhibition percentages and IC50 values of the compounds were calculated.

Recombinant human KIF18A (1-467His-tagged) protein, sequence (Q8NI77 1-467): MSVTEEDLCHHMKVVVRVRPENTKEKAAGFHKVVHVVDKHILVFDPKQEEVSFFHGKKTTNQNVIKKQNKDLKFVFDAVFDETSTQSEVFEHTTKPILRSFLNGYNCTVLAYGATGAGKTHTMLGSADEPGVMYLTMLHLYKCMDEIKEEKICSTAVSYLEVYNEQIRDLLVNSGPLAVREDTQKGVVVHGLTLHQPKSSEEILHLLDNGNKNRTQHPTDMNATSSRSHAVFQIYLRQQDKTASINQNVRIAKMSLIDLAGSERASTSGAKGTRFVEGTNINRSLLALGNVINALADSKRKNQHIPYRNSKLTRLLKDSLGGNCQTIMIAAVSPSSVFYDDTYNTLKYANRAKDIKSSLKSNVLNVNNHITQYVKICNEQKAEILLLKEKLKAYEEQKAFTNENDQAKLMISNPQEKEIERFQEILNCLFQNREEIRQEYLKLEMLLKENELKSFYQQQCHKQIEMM
Recombinant human KIF18A (1-467His-tagged) protein, sequence (P02550 whole entry partner): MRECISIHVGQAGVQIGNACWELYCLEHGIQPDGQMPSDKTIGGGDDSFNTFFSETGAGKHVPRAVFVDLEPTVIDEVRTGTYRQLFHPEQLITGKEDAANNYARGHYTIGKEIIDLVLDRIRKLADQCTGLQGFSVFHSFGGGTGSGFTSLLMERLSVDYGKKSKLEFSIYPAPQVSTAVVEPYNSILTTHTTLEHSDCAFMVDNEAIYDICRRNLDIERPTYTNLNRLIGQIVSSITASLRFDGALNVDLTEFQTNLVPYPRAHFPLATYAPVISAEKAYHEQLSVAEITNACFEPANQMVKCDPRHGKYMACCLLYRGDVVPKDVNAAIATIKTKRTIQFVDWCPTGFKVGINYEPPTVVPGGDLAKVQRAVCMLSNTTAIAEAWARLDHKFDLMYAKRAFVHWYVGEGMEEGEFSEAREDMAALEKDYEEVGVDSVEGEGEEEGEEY
Recombinant human KIF18A (1-467His-tagged) protein, sequence (P02554 whole entry partner): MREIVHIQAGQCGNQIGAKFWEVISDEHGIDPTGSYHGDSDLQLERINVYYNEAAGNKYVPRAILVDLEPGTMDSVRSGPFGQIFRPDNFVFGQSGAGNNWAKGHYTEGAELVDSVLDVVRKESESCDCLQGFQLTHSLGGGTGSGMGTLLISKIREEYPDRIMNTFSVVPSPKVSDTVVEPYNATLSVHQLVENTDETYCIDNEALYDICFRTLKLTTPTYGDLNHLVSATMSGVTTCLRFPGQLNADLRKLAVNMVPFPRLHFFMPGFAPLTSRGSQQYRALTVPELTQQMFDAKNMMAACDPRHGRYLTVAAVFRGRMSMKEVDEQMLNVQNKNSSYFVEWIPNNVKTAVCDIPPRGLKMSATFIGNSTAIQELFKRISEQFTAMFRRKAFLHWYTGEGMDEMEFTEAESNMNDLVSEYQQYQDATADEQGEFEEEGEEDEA

IC50, ≤ 100 nM:
O=C(Nc1cc2c(c(N3CCOCC3)n1)OCC2)c1ccc(S(=O)(=O)NCCO)cc1N1CCC2(CC1)CC2 [Compound 92]
C[C@@H](CO)NS(=O)(=O)c1ccc(C(=O)Nc2cc3c(c(N4CCC(F)(F)CC4)n2)OCC3)c(N2CCC3(CC2)CC3)c1 [Compound 93]
C[C@H](CO)NS(=O)(=O)c1ccc(C(=O)Nc2cc3c(c(N4CCC(F)(F)CC4)n2)OCC3)c(N2CCC3(CC2)CC3)c1 [Compound 94]
C[C@@H]1CN(c2nc(NC(=O)c3ccc(S(=O)(=O)N[C@@H](C)CO)cc3N3CCC4(CC3)CC4)cc3c2OCC3)CCO1 [Compound 95]
C[C@H](CO)NS(=O)(=O)c1ccc(C(=O)Nc2cc3c(c(N4CCO[C@H](C)C4)n2)OCC3)c(N2CCC3(CC2)CC3)c1 [Compound 96]
C[C@@H]1CN(c2nc(C(=O)Nc3ccc(NS(=O)(=O)CCO)cc3N3CCC4(CC3)CC4)cc3c2OCC3)CCO1 [Compound 98]
C[C@H]1CN(c2nc(C(=O)Nc3ccc(NS(=O)(=O)CCO)cc3N3CCC4(CC3)CC4)cc3c2OCC3)CCO1 [Compound 99]
O=C(Nc1ccc(NS(=O)(=O)CCO)cc1N1CCC2(CC1)CC2)c1cc2c(c(N3CC(F)(F)C3)n1)OCC2 [Compound 100]
O=C(Nc1ccc(NS(=O)(=O)CCO)cc1N1CCC2(CC1)CC2)c1cc2c(c(OCCC(F)(F)F)n1)OCC2 [Compound 101]
O=C(Nc1ccc(NS(=O)(=O)CCO)cc1N1CCC2(CC1)CC2)c1cc2c(c(N3CCC4(CC4)C3)n1)OCC2 [Compound 102]
O=C(Nc1ccc(NS(=O)(=O)CCO)cc1N1CCC2(CC1)CC2)c1cc2c(c(OC3CCC3)n1)OCC2 [Compound 103]
CC1(F)CCN(c2nc(C(=O)Nc3ccc(NS(=O)(=O)CCO)cc3N3CCC4(CC3)CC4)cc3c2OCC3)C1 (stereo not shown) [Compound 104]
O=C(Nc1ccc(NS(=O)(=O)CCO)cc1N1CCC2(CC1)CC2)c1cc2c(c(N3CCC(F)CC3)n1)OCC2 [Compound 105]
CC(C)(CO)Nc1nc(C(=O)Nc2ccc(NS(=O)(=O)CCO)cc2N2CCC3(CC2)CC3)cc2c1OCC2 [Compound 107]
O=C(Nc1ccc(NS(=O)(=O)CCO)cc1N1CCC2(CC1)CC2)c1cc2c(c(N3CCOCC3)n1)OCC2 [Compound 108]
C[C@@H](CO)S(=O)(=O)Nc1ccc(NC(=O)c2cc3c(c(N4CCC(F)(F)CC4)n2)OCC3)c(N2CCC3(CC2)CC3)c1 [Compound 109]
C[C@H](CO)S(=O)(=O)Nc1ccc(NC(=O)c2cc3c(c(N4CCC(F)(F)CC4)n2)OCC3)c(N2CCC3(CC2)CC3)c1 [Compound 110]
C[C@@H]1CN(c2nc(C(=O)Nc3ccc(NS(=O)(=O)[C@@H](C)CO)cc3N3CCC4(CC3)CC4)cc3c2OCC3)CCO1 [Compound 111]
C[C@@H]1CN(c2nc(C(=O)Nc3ccc(NS(=O)(=O)[C@H](C)CO)cc3N3CCC4(CC3)CC4)cc3c2OCC3)CCO1 [Compound 112]
C[C@@H]1CN(c2nc(C(=O)Nc3ccc(S(=O)(=O)NCCO)cc3N3CCC4(CC3)CC4)cc3c2OCC3)CCO1 [Compound 114]
C[C@H]1CN(c2nc(C(=O)Nc3ccc(S(=O)(=O)NCCO)cc3N3CCC4(CC3)CC4)cc3c2OCC3)CCO1 [Compound 115]
O=C(Nc1ccc(S(=O)(=O)NCCO)cc1N1CCC2(CC1)CC2)c1cc2c(c(N3CC(F)(F)C3)n1)OCC2 [Compound 116]
O=C(Nc1ccc(S(=O)(=O)NCCO)cc1N1CCC2(CC1)CC2)c1cc2c(c(OCCC(F)(F)F)n1)OCC2 [Compound 117]
O=C(Nc1ccc(S(=O)(=O)NCCO)cc1N1CCC2(CC1)CC2)c1cc2c(c(N3CCC4(CC4)C3)n1)OCC2 [Compound 118]
O=C(Nc1ccc(S(=O)(=O)NCCO)cc1N1CCC2(CC1)CC2)c1cc2c(c(OC3CCC3)n1)OCC2 [Compound 119]
CC1(F)CCN(c2nc(C(=O)Nc3ccc(S(=O)(=O)NCCO)cc3N3CCC4(CC3)CC4)cc3c2OCC3)C1 (stereo not shown) [Compound 120]
O=C(Nc1ccc(S(=O)(=O)NCCO)cc1N1CCC2(CC1)CC2)c1cc2c(c(N3CCC(F)CC3)n1)OCC2 [Compound 121]
O=C(Nc1ccc(S(=O)(=O)NCCO)cc1N1CCC2(CC1)CC2)c1cc2c(c(N3CC4CC4C3)n1)OCC2 (stereo not shown) [Compound 122]
CC(C)(CO)Nc1nc(C(=O)Nc2ccc(S(=O)(=O)NCCO)cc2N2CCC3(CC2)CC3)cc2c1OCC2 [Compound 123]
O=C(Nc1ccc(S(=O)(=O)NCCO)cc1N1CCC2(CC1)CC2)c1cc2c(c(N3CCOCC3)n1)OCC2 [Compound 124]
C[C@@H](CO)NS(=O)(=O)c1ccc(NC(=O)c2cc3c(c(N4CCC(F)(F)CC4)n2)OCC3)c(N2CCC3(CC2)CC3)c1 [Compound 125]
C[C@@H]1CN(c2nc(C(=O)Nc3ccc(S(=O)(=O)N[C@@H](C)CO)cc3N3CCC4(CC3)CC4)cc3c2OCC3)CCO1 [Compound 127]
C[C@H](CO)NS(=O)(=O)c1ccc(NC(=O)c2cc3c(c(N4CCO[C@H](C)C4)n2)OCC3)c(N2CCC3(CC2)CC3)c1 [Compound 128]
C[C@@H]1CN(c2cc(NC(=O)c3ccc(NS(=O)(=O)CCO)cc3N3CCC4(CC3)CC4)cc3ccoc23)CCO1 [Compound 130]
C[C@H]1CN(c2cc(NC(=O)c3ccc(NS(=O)(=O)CCO)cc3N3CCC4(CC3)CC4)cc3ccoc23)CCO1 [Compound 131]
O=C(Nc1cc(N2CC(F)(F)C2)c2occc2c1)c1ccc(NS(=O)(=O)CCO)cc1N1CCC2(CC1)CC2 [Compound 132]
O=C(Nc1cc(OCCC(F)(F)F)c2occc2c1)c1ccc(NS(=O)(=O)CCO)cc1N1CCC2(CC1)CC2 [Compound 133]
O=C(Nc1cc(N2CCC3(CC3)C2)c2occc2c1)c1ccc(NS(=O)(=O)CCO)cc1N1CCC2(CC1)CC2 [Compound 134]
O=C(Nc1cc(OC2CCC2)c2occc2c1)c1ccc(NS(=O)(=O)CCO)cc1N1CCC2(CC1)CC2 [Compound 135]
CC1(F)CCN(c2cc(NC(=O)c3ccc(NS(=O)(=O)CCO)cc3N3CCC4(CC3)CC4)cc3ccoc23)C1 (stereo not shown) [Compound 136]
O=C(Nc1cc(N2CCC(F)CC2)c2occc2c1)c1ccc(NS(=O)(=O)CCO)cc1N1CCC2(CC1)CC2 [Compound 137]
O=C(Nc1cc(N2CC3CC3C2)c2occc2c1)c1ccc(NS(=O)(=O)CCO)cc1N1CCC2(CC1)CC2 (stereo not shown) [Compound 138]
CC(C)(CO)Nc1cc(NC(=O)c2ccc(NS(=O)(=O)CCO)cc2N2CCC3(CC2)CC3)cc2ccoc12 [Compound 139]
O=C(Nc1cc(N2CCOCC2)c2occc2c1)c1ccc(NS(=O)(=O)CCO)cc1N1CCC2(CC1)CC2 [Compound 140]
C[C@@H](CO)S(=O)(=O)Nc1ccc(C(=O)Nc2cc(N3CCC(F)(F)CC3)c3occc3c2)c(N2CCC3(CC2)CC3)c1 [Compound 141]
C[C@H](CO)S(=O)(=O)Nc1ccc(C(=O)Nc2cc(N3CCC(F)(F)CC3)c3occc3c2)c(N2CCC3(CC2)CC3)c1 [Compound 142]
C[C@@H]1CN(c2cc(NC(=O)c3ccc(NS(=O)(=O)[C@@H](C)CO)cc3N3CCC4(CC3)CC4)cc3ccoc23)CCO1 [Compound 143]
C[C@@H]1CN(c2cc(NC(=O)c3ccc(NS(=O)(=O)[C@H](C)CO)cc3N3CCC4(CC3)CC4)cc3ccoc23)CCO1 [Compound 144]
O=C(Nc1cc(N2CCC(F)(F)CC2)c2occc2c1)c1ccc(S(=O)(=O)NCCO)cc1N1CCC2(CC1)CC2 [Compound 145]
C[C@@H]1CN(c2cc(NC(=O)c3ccc(S(=O)(=O)NCCO)cc3N3CCC4(CC3)CC4)cc3ccoc23)CCO1 [Compound 146]
C[C@H]1CN(c2cc(NC(=O)c3ccc(S(=O)(=O)NCCO)cc3N3CCC4(CC3)CC4)cc3ccoc23)CCO1 [Compound 147]
O=C(Nc1cc(N2CC(F)(F)C2)c2occc2c1)c1ccc(S(=O)(=O)NCCO)cc1N1CCC2(CC1)CC2 [Compound 148]
O=C(Nc1cc(OCCC(F)(F)F)c2occc2c1)c1ccc(S(=O)(=O)NCCO)cc1N1CCC2(CC1)CC2 [Compound 149]
O=C(Nc1cc(N2CCC3(CC3)C2)c2occc2c1)c1ccc(S(=O)(=O)NCCO)cc1N1CCC2(CC1)CC2 [Compound 150]
O=C(Nc1cc(OC2CCC2)c2occc2c1)c1ccc(S(=O)(=O)NCCO)cc1N1CCC2(CC1)CC2 [Compound 151]
CC1(F)CCN(c2cc(NC(=O)c3ccc(S(=O)(=O)NCCO)cc3N3CCC4(CC3)CC4)cc3ccoc23)C1 (stereo not shown) [Compound 152]
O=C(Nc1cc(N2CCC(F)CC2)c2occc2c1)c1ccc(S(=O)(=O)NCCO)cc1N1CCC2(CC1)CC2 [Compound 153]
O=C(Nc1cc(N2CC3CC3C2)c2occc2c1)c1ccc(S(=O)(=O)NCCO)cc1N1CCC2(CC1)CC2 (stereo not shown) [Compound 154]
